The structures appear in SMILES notation.

In the assay the test system is RAW264.7. Nature of the assay: Antiinflammatory activity against mouse RAW264.7 cells assessed as inhibition of LPS induced nitric oxide production preincubated for 2 hrs followed by LPS challenge measured after 24 hrs by Griess reagent based assay. Format: functional, cell-based.
Take `C[C@@]12c3ccc4c(c3C[N@@+](C)([O-])[C@H]1c1cc3c(cc1C[C@@H]2O)OCO3)OCO4`: the half-inhibitory concentration (IC50) came to 2790 nM.
As for `CN1Cc2c(ccc3c2OCO3)[C@@]2(C)[C@@H](O)Cc3cc4c(cc3[C@@H]12)OCO4`, the figure is 2510 nM.
As for `CC(=O)O[C@H]1Cc2cc3c(cc2[C@@H]2[C@@]1(C)c1ccc4c(c1C[N@@+]2(C)[O-])OCO4)OCO3`, the figure is 2260 nM.
On to `CN(C)c1ccc(O)c2c1C[C@H]1C[C@H]3[C@H](N(C)C)C(O)=C(C(N)=O)C(=O)[C@@]3(O)C(O)=C1C2=O` [MINOCYCLINE], for which the IC50 amounted to 31300 nM.
For the compound `CC(=O)O[C@H]1Cc2cc3c(cc2[C@H]2[C@@]1(C)c1ccc4c(c1C[N@@+]2(C)[O-])OCO4)OCO3`, the half-inhibitory concentration (IC50) turned out to be 33800 nM.
As for `CC(=O)O[C@H]1Cc2cc3c(cc2[C@H]2N(C)Cc4c(ccc5c4OCO5)[C@@]12C)OCO3`, the figure is 23100 nM; as for `COc1cc2c(cc1O)C1Cc3ccc4c(c3CN1CC2)OCO4` (stereo not given) [CHEILANTHIFOLINE], 1880 nM; as for `COC(=O)C[C@H]1c2c(ccc3c2OCO3)[C@@]2(C)[C@@H](OC(C)=O)Cc3cc4c(cc3[C@H]2N1C)OCO4`, 2030 nM.
As for `COC(=O)C[C@H]1c2c(ccc3c2OCO3)[C@@]2(C)[C@@H](OC(C)=O)Cc3cc4c(cc3[C@@H]2N1C)OCO4`, the figure is 2190 nM; as for `CC(=O)O[C@H]1Cc2cc3c(cc2[C@@H]2N(C)Cc4c(ccc5c4OCO5)[C@@]12C)OCO3`, 1000 nM.

Source of the values: ChEMBL document CHEMBL4118227, “Hexahydrobenzophenanthridine alkaloids from Corydalis bungeana Turcz. and their anti-inflammatory activity” (Bioorg Med Chem Lett, 2018).
